Values of other authors, collected in patent publication US5854268A, “Azetidine, pyrrolidine and piperidine derivatives” (Merck Sharp & Dohme, Ltd., priority 1994, dated 1998).

Details: therapeutic doses

SMILES: CNS(=O)(=O)Cc1ccc2[nH]cc(CCN(C)C)c2c1 [sumatriptan]
- adverse events in humans: certain adverse cardiovascular events
